ChEMBL document CHEMBL5523719, “Structure-activity relationship study of new carbazole sulfonamide derivatives as anticancer agents with dual-target mechanism” (Eur J Med Chem, 2024)
Activity calls are given as the source filed them. No cut-off for these calls is given here.

Tests used:
MCF7 [1] = test: Induction of apoptosis in human MCF7 cells assessed as karyolysis at 1 nM measured after 24 hrs by fluorescent microscopy; type: functional, cell-based
MCF7 [2] = test: Induction of apoptosis in human MCF7 cells assessed as late apoptotic cells at 25 nM measured after 48 hrs by AnnexinV/PI double staining assays (reference value: 2.60%); type: functional
HMEC-1 [3] = test: Angiogenic activity against human HMEC-1 cells assessed as decrease in vascular area measured after 48 hrs by Endothelial tube formation assay; type: functional, cell-based; settings: dose 1-100 nM
MCF7 [4] = test: Induction of apoptosis in human MCF7 cells assessed as early apoptotic cells at 50 nM measured after 48 hrs by AnnexinV/PI double staining assays (reference value: 5.32%); type: functional
MCF7 [5] = test: Induction of apoptosis in human MCF7 cells assessed as multinuclear cells at 5 nM measured after 24 hrs by fluorescent microscopy; type: functional
MCF7 [6] = test: Induction of cell cycle arrest in human MCF7 cells assessed as accumulation of cells at G2/M phase at 4 nM measured after 24 hrs by flow cytometry (reference value: 22.84%); type: functional
MCF7 [7] = test: Induction of apoptosis in human MCF7 cells assessed as early apoptotic cells at 6.25 nM measured after 48 hrs by AnnexinV/PI double staining assays (reference value: 5.32%); type: functional
MCF7 [8] = test: Induction of apoptosis in human MCF7 cells assessed as early apoptotic cells at 12.5 nM measured after 48 hrs by AnnexinV/PI double staining assays (reference value: 5.32%); type: functional
MCF7 [9] = test: Induction of cell cycle arrest in human MCF7 cells assessed as accumulation of cells at G2/M phase at 25 nM measured after 24 hrs by flow cytometry (reference value: 22.84%); type: functional
[10] = target: Tubulin beta (Homo sapiens) (UniProt P68371+Q9H4B7+Q13509+P04350+Q3ZCM7+P07437+Q13885+Q9BVA1+Q9BUF5+A6NNZ2); test: Binding affinity to beta-tubulin colchicine binding site in human MCF7 cells assessed as inhibition of EBI-beta-tubulin adduct band formation preincubated for 2 hrs followed by EBI addition measured after 2 hrs by EBI competition based Western blotting analysis; type: cell-based; settings: dose 12.5-100 nM
MCF7 [11] = test: Induction of apoptosis in human MCF7 cells assessed as late apoptotic cells at 6.25 nM measured after 48 hrs by AnnexinV/PI double staining assays (reference value: 2.60%); type: functional
MCF7 [12] = test: Induction of apoptosis in human MCF7 cells assessed as late apoptotic cells at 50 nM measured after 48 hrs by AnnexinV/PI double staining assays (reference value: 2.60%); type: functional
Tubulin (Homo sapiens) [13] = target: T1, Tubulin (Homo sapiens) (UniProt P68371+Q9H4B7+P0DPH7+P68366+Q13509+Q71U36+P04350+Q3ZCM7+P07437+P68363+Q9BQE3+Q6PEY2+Q13885+Q9BVA1+Q9BUF5); test: Inhibition of microtubule assembly in human HepG2 cells assessed as disrupted microtubule network at 50 uM measured after 24 hrs incubation by anti-alpha-tubulin antibody (green) and Hoechst 33342 (blue) stained nuclei were obtained under microscopy; type: cell-based
MCF7 [14] = test: Induction of apoptosis in human MCF7 cells assessed as necrotic cells at 12.5 nM measured after 48 hrs by AnnexinV/PI double staining assays (reference value: 0.89%); type: functional
MCF7 [15] = test: Induction of cell cycle arrest in human MCF7 cells assessed as accumulation of cells at G0/G1 phase at 500 nM measured after 24 hrs by flow cytometry (reference value: 61.73%); type: functional
[16] = target: DNA topoisomerase 2-alpha (Homo sapiens) (UniProt P11388); test: Inhibition of human DNA topoisomerase 2 assessed as relaxation of supercoiled pBR322 DNA as substrate at 20 uM incubated for 30 mins by gel staining based electrophoresis analysis
MCF7 [17] = test: Induction of apoptosis in human MCF7 cells assessed as early apoptotic cells at 25 nM measured after 48 hrs by AnnexinV/PI double staining assays (reference value: 5.32%); type: functional
MCF7 [18] = test: Induction of apoptosis in human MCF7 cells assessed as karyopyknosis at 5 nM measured after 24 hrs by fluorescent microscopy; type: functional, cell-based
L02 = test: Antiproliferation activity against human L02 cells measured after 72 hrs incubation by MTT assay; type: functional, cell-based; settings: L02, 72 h
Tubulin (Homo sapiens) [19] = target: T1, Tubulin (Homo sapiens); test: Inhibition of microtubule assembly in human MCF7 cells assessed as disrupted microtubule network at 50 uM measured after 24 hrs incubation by anti-alpha-tubulin antibody (green) and Hoechst 33342 (blue) stained nuclei were obtained under microscopy; type: cell-based
KB = test: Antiproliferation activity against human KB cells measured after 72 hrs incubation by MTT assay; type: functional, cell-based
Tubulin (Homo sapiens) [20] = target: T1, Tubulin (Homo sapiens); test: In vitro inhibition of microtubule (unknown origin) assembly at 10 uM; type: protein-complex assay
MDA-MB-231 = test: Antiproliferation activity against human MDA-MB-231 cells measured after 72 hrs incubation by MTT assay; type: functional, cell-based; settings: MDA-MB-231, 72 h
MCF7 [21] = test: Induction of cell cycle arrest in human MCF7 cells assessed as increase in phosphorylation of histone H3 at […] by Western blot analysis; type: functional, cell-based; settings: dose lower 12.5 µM
NCI-H460 = test: Antiproliferation activity against human NCI-H460 cells measured after 72 hrs incubation by MTT assay; type: functional, cell-based; settings: NCI-H460, 72 h
[22] = target: DNA topoisomerase 2-alpha (Homo sapiens) (UniProt P11388); test: Inhibition of human DNA topoisomerase 2 assessed as relaxation of supercoiled pBR322 DNA as substrate at 200 uM incubated for 30 mins by gel staining based electrophoresis analysis
MCF7 [23] = test: Induction of apoptosis in human MCF7 cells assessed as viable cells at 25 nM measured after 48 hrs by AnnexinV/PI double staining assays (reference value: 91.20%); type: functional; settings: read-out: Activity
MCF7 [24] = test: Induction of cell cycle arrest in human MCF7 cells assessed as increase in cyclin B1 protein expression at […] by Western blot analysis; type: functional, cell-based; settings: dose lower 12.5 µM
HMEC-1 [25] = test: Anti-migration activity in human HMEC-1 cells assessed as inhibition of cell migration at 5 nM measured after 48 hrs by Scratching assay; type: functional, cell-based
MCF7 [26] = test: Induction of cell cycle arrest in human MCF7 cells assessed as accumulation of cells at G0/G1 phase at 4 nM measured after 24 hrs by flow cytometry (reference value: 61.73%); type: functional
MCF7 [27] = test: Antiproliferation activity against human MCF7 cells measured after 72 hrs incubation by MTT assay; type: functional, cell-based; settings: MCF7, 72 h
MIA PaCa-2 = test: Antiproliferation activity against human MIA PaCa-2 cells measured after 72 hrs incubation by MTT assay; type: functional, cell-based; settings: MIA PaCa-2, 72 h
MCF7 [28] = test: Induction of apoptosis in human MCF7 cells assessed as late apoptotic cells at 12.5 nM measured after 48 hrs by AnnexinV/PI double staining assays (reference value: 2.60%); type: functional
MCF7 [29] = test: Induction of cell cycle arrest in human MCF7 cells assessed as accumulation of cells at G0/G1 phase at 25 nM measured after 24 hrs by flow cytometry (reference value: 61.73%); type: functional
MCF7 [30] = test: Induction of apoptosis in human MCF7 cells assessed as viable cells at 50 nM measured after 48 hrs by AnnexinV/PI double staining assays (reference value: 91.20%); type: functional; settings: read-out: Activity

DNA topoisomerase 2-alpha (Homo sapiens), sequence (P11388 whole entry): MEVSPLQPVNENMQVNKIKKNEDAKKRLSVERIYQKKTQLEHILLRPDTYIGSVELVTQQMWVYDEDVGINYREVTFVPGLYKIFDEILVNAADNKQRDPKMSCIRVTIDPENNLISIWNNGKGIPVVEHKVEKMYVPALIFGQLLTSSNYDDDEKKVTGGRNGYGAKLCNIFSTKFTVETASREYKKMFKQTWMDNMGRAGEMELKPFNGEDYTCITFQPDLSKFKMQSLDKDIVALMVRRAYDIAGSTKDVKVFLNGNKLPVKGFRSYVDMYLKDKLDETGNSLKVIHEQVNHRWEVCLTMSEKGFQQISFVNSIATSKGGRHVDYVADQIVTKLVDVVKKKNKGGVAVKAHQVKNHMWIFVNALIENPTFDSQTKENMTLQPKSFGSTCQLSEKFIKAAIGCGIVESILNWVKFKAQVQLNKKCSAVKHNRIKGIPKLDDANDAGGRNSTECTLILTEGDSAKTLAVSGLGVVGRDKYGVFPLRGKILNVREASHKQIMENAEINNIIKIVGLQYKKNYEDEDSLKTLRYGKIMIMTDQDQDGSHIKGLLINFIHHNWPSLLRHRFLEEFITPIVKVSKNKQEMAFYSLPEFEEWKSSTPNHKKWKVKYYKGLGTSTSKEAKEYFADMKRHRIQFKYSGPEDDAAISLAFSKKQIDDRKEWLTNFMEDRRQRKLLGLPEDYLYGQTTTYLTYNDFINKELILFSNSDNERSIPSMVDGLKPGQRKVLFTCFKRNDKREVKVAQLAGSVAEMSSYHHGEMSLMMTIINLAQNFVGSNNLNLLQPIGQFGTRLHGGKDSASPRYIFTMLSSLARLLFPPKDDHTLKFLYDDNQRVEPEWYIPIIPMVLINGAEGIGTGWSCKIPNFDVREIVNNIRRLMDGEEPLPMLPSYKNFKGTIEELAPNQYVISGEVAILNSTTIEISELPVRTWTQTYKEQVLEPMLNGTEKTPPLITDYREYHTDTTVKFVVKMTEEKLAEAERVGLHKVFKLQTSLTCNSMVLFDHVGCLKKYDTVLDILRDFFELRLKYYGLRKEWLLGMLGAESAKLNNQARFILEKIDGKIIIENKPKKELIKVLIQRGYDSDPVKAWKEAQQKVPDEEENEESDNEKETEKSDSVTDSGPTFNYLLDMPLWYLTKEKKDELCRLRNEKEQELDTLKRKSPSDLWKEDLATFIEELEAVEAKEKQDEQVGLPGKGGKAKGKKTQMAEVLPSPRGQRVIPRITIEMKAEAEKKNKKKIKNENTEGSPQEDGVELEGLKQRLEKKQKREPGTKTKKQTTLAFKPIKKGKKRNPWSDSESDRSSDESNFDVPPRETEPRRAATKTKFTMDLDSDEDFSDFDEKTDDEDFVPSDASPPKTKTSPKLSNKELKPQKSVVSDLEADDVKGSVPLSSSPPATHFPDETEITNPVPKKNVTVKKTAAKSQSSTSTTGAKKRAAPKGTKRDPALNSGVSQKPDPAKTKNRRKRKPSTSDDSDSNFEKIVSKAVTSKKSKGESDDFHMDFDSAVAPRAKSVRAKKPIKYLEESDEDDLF

Question: For `COc1cc(NS(=O)(=O)c2ccc3c(c2)c2ccc(N)cc2n3C)c(OC)cc1Cl`, which Activity (MCF7 [1]) is on record?
Answer: Active

Question: And the Activity (MCF7 [2])?
Answer: 14.03%

Question: What about the Activity (HMEC-1 [3]) of the same compound?
Answer: Dose-Dependent Effect

Question: What about the Activity (MCF7 [4]) of the same compound?
Answer: 50.98%

Question: What about the Activity (MCF7 [5]) of the same compound?
Answer: Active

Question: And the Activity (MCF7 [6])?
Answer: 23.3%

Question: What about the Activity (MCF7 [7]) of the same compound?
Answer: 16.87%

Question: And the Activity (MCF7 [8])?
Answer: 26.99%

Question: What about the Activity (MCF7 [9]) of the same compound?
Answer: 31.9%

Question: What about the Activity [10] of the same compound?
Answer: Active

Question: What about the Activity (MCF7 [11]) of the same compound?
Answer: 7.06%

Question: What about the Activity (MCF7 [12]) of the same compound?
Answer: 14.69%

Question: And the inhibition (Tubulin (Homo sapiens) [13])?
Answer: Active

Question: And the Activity (MCF7 [14])?
Answer: 0.14%

Question: And the Activity (MCF7 [15])?
Answer: 5.54%

Question: What about the inhibition [16] of the same compound?
Answer: inactive

Question: What about the Activity (MCF7 [17]) of the same compound?
Answer: 46.14%

Question: And the Activity (MCF7 [18])?
Answer: Active

Question: What about the IC50 (L02) of the same compound?
Answer: 0.0185 µM

Question: What about the inhibition (Tubulin (Homo sapiens) [19]) of the same compound?
Answer: Active

Question: And the IC50 (KB)?
Answer: 0.00945 µM

Question: What about the inhibition (Tubulin (Homo sapiens) [20]) of the same compound?
Answer: Active

Question: What about the IC50 (MDA-MB-231) of the same compound?
Answer: 0.0312 µM

Question: What about the Activity (MCF7 [21]) of the same compound?
Answer: Dose-Dependent Effect

Question: What about the IC50 (NCI-H460) of the same compound?
Answer: 0.018 µM

Question: What about the inhibition [22] of the same compound?
Answer: inactive

Question: And the viability at 0.025 µM (MCF7 [23])?
Answer: 39.3%

Question: And the Activity (MCF7 [24])?
Answer: Dose-Dependent Effect

Question: What about the inhibition (HMEC-1 [25]) of the same compound?
Answer: Active

Question: And the Activity (MCF7 [26])?
Answer: 47.57%

Question: And the IC50 (MCF7 [27])?
Answer: 0.0122 µM

Question: And the IC50 (MIA PaCa-2)?
Answer: 0.0133 µM

Question: What about the Activity (MCF7 [28]) of the same compound?
Answer: 8.66%

Question: And the Activity (MCF7 [29])?
Answer: 36.18%

Question: What about the viability at 0.05 µM (MCF7 [30]) of the same compound?
Answer: 34.2%
